# Data reported in US6737383B1, “Herbicidal oxadiazolidines” (priority 1999, dated 2004).
# What was measured:
# duck salad = assay: Test B flood test duck salad; format: in vivo, Heteranthera limosa
# In short: (§1)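 Plants were grown to the 2-leaf stage before treatment with test chemical, then held in a greenhouse for twelve to sixteen days. Injury was visually rated against untreated controls on a 0–10 scale, where 0 is no effect and 10 is complete control.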
# velvetleaf = assay: Test B pre/postemergence velvetleaf; format: in vivo, Abutilon theophrasti
# In short: (§2)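 Test chemicals in a non-phytotoxic solvent mixture with surfactant were sprayed preemergence onto planted seeds and postemergence onto plants 2 to 18 cm tall (1- to 4-leaf stage). After twelve to sixteen days in a greenhouse, injury was visually rated against untreated controls from 0 (no effect) to 10 (complete control).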
# pigweed = assay: Test B pre/postemergence pigweed; format: in vivo, Amaranthus retroflexus
# In short: as §2
# bamyardgrass = assay: Test B flood test barnyardgrass; format: in vivo, Echinochloa crus-galli
# In short: as §1
# bedstraw = assay: Test B pre/postemergence bedstraw; format: in vivo, Galium aparine; details: Preemergence
# In short: as §2
# rape = assay: Test B pre/postemergence rape; format: in vivo, Brassica napus
# In short: as §2
# soybean = assay: Test B pre/postemergence soybean; format: in vivo, Glycine max
# In short: as §2
# giant foxtail = assay: Test B pre/postemergence giant foxtail; format: in vivo, Setaria faberii
# In short: as §2
# cocklebur = assay: Test B pre/postemergence cocklebur; format: in vivo, Xanthium strumarium
# In short: as §2
# sugar beet = assay: Test B pre/postemergence sugar beet; format: in vivo, Beta vulgaris
# In short: as §2
# surinam grass = assay: Test B pre/postemergence surinam grass; format: in vivo, Brachiaria decumbens
# In short: as §2
# blackgrass = assay: Test B pre/postemergence blackgrass; format: in vivo, Alopecurus myosuroides
# In short: as §2
# wild oat = assay: Test B pre/postemergence wild oat; format: in vivo, Avena fatua
# In short: as §2
# rice = assay: Test B flood test rice; format: in vivo, Oryza sativa
# In short: as §1
# crabgrass = assay: Test B pre/postemergence crabgrass; format: in vivo, Digitaria sanguinalis
# In short: as §2
# wheat = assay: Test B pre/postemergence wheat; format: in vivo, Triticum aestivum
# In short: as §2
# purple nutsedge = assay: Test B pre/postemergence purple nutsedge; format: in vivo, Cyperus rotundus
# In short: as §2
# smallflower flatsedge = assay: Test B flood test smallflower flatsedge; format: in vivo, Cyperus difformis
# In short: as §1
# corn = assay: Test B pre/postemergence corn; format: in vivo, Zea mays
# In short: as §2
# morningglory = assay: Test B pre/postemergence morningglory; format: in vivo, Ipomoea hederacea
# In short: as §2
# [1] = Rate 31 g/ha, Pre-emergence section (flood test species), scale 0 to 10
# [2] = Rate 62 g/ha, flood test species, Pre-emergence, visual evaluation after twelve to sixteen days
# [3] = Rate 125 g/ha, under heading Pre-emergence, flood test species, visual evaluation after twelve to sixteen days
# [4] = Rate 250 g/ha, Pre-emergence, flood-test species, scale 0 to 10, 0 is no effect, 10 is complete control
# [5] = Postemergence, Rate 31 g/ha, visual rating, scale 0 to 10 (0 no effect, 10 complete control)
# [6] = Postemergence, Rate 250 g/ha, scale 0 to 10, 0 is no effect, 10 is complete control
# [7] = Preemergence, Rate 62 g/ha, scale 0 to 10 (0 no effect, 10 complete control)
# [8] = Preemergence, Rate 125 g/ha, scale of 0 to 10 where 0 is no effect and 10 is complete control
# [9] = Preemergence, Rate 250 g/ha, scale of 0 to 10 where 0 is no effect and 10 is complete control
# [10] = Rate 62 g/ha, Postemergence, scale of 0 to 10 where 0 is no effect and 10 is complete control
# [11] = Postemergence, Rate 125 g/ha, scale 0 to 10, 0 is no effect, 10 is complete control
# [12] = Preemergence, Rate 31 g/ha, visual rating, scale 0 to 10 (0 no effect, 10 complete control)
smiles,measurement,setting,value
CC(C)N(C(=O)n1oc(=O)n([C@@H]2C[C@H]2C)c1=O)c1ccc(F)cc1 (relative stereo) [Compound 392],Ducksalad plant response rating,duck salad; [1],0
same,"Plant response rating, Ducksalad (0 to 10 scale, 0 is no effect, 10 is complete control)",duck salad; [2],0
same,"Ducksalad plant response rating (0 to 10 scale, 0 is no effect, 10 is complete control)",duck salad; [3],0
same,Ducksalad plant response rating,duck salad; [4],0
same,Velvetleaf plant response rating,velvetleaf; [5],0
same,"Plant response rating, Velvetleaf",velvetleaf; [6],2
same,"Plant response rating, Velvetleaf",velvetleaf; [7],0
same,"Plant response rating, Velvetleaf",velvetleaf; [8],3
same,Velvetleaf plant response rating,velvetleaf; [9],5
same,Velvetleaf plant response rating,velvetleaf; [10],0
same,Redroot pigweed plant response rating,pigweed; [5],0
same,"Plant response rating, Redroot pigweed",pigweed; [6],6
same,"Plant response rating, Redroot pigweed",pigweed; [7],2
same,"Plant response rating, Redroot pigweed",pigweed; [8],7
same,Redroot pigweed plant response rating,pigweed; [9],10
same,Redroot pigweed plant response rating,pigweed; [10],0
same,Barnyardgrass plant response rating,bamyardgrass; [1],0
same,"Plant response rating, Barnyardgrass (0 to 10 scale, 0 is no effect, 10 is complete control)",bamyardgrass; [2],0
same,"Barnyardgrass plant response rating (0 to 10 scale, 0 is no effect, 10 is complete control)",bamyardgrass; [3],0
same,Barnyardgrass plant response rating,bamyardgrass; [4],0
same,Bedstraw plant response rating,"bedstraw; Rate 31 g/ha, visual rating, scale 0 to 10 (0 no effect, 10 complete control)",0
same,"Plant response rating, Bedstraw","bedstraw; Rate 125 g/ha, scale of 0 to 10 where 0 is no effect and 10 is complete control",8
same,Bedstraw plant response rating,"bedstraw; Rate 250 g/ha, scale of 0 to 10 where 0 is no effect and 10 is complete control",10
same,Rape plant response rating,rape; [5],0
same,"Plant response rating, Rape",rape; [6],0
same,"Plant response rating, Rape",rape; [7],0
same,"Plant response rating, Rape",rape; [8],0
same,Rape plant response rating,rape; [9],5
same,Rape plant response rating,rape; [10],0
same,Soybean plant response rating,soybean; [5],1
same,"Plant response rating, Soybean",soybean; [6],2
same,"Plant response rating, Soybean",soybean; [7],0
same,"Plant response rating, Soybean",soybean; [8],0
same,Soybean plant response rating,soybean; [9],0
same,Soybean plant response rating,soybean; [10],1
same,Giant foxtail plant response rating,giant foxtail; [5],7
same,"Plant response rating, Giant foxtail",giant foxtail; [11],9
same,"Plant response rating, Giant foxtail",giant foxtail; [6],9
same,Giant foxtail plant response rating,giant foxtail; [12],10
same,"Plant response rating, Giant foxtail",giant foxtail; [7],10
same,"Plant response rating, Giant foxtail",giant foxtail; [8],10
same,Giant foxtail plant response rating,giant foxtail; [9],10
same,Giant foxtail plant response rating,giant foxtail; [10],7
same,Cocklebur plant response rating,cocklebur; [5],0
same,"Plant response rating, Cocklebur",cocklebur; [11],2
same,"Plant response rating, Cocklebur",cocklebur; [6],2
same,Cocklebur plant response rating,cocklebur; [12],0
same,"Plant response rating, Cocklebur",cocklebur; [7],0
same,"Plant response rating, Cocklebur",cocklebur; [8],0
same,Cocklebur plant response rating,cocklebur; [9],0
same,Cocklebur plant response rating,cocklebur; [10],0
same,Sugarbeets plant response rating,sugar beet; [5],0
same,"Plant response rating, Sugarbeets",sugar beet; [6],0
same,"Plant response rating, Sugarbeets",sugar beet; [7],0
same,"Plant response rating, Sugarbeets",sugar beet; [8],3
same,Sugarbeets plant response rating,sugar beet; [9],7
same,Sugarbeets plant response rating,sugar beet; [10],0
same,B. signalgrass plant response rating,surinam grass; [5],0
same,"Plant response rating, B. signalgrass",surinam grass; [11],5
same,"Plant response rating, B. signalgrass",surinam grass; [6],7
same,B. signalgrass plant response rating,surinam grass; [12],0
same,"Plant response rating, B. signalgrass",surinam grass; [7],2
same,"Plant response rating, B. signalgrass",surinam grass; [8],3
same,B. signalgrass plant response rating,surinam grass; [9],9
same,B. signalgrass plant response rating,surinam grass; [10],1
same,Blackgrass plant response rating,blackgrass; [5],7
same,"Plant response rating, Blackgrass",blackgrass; [11],10
same,"Plant response rating, Blackgrass",blackgrass; [6],10
same,Blackgrass plant response rating,blackgrass; [12],2
same,"Plant response rating, Blackgrass",blackgrass; [7],6
same,"Plant response rating, Blackgrass",blackgrass; [8],8
same,Blackgrass plant response rating,blackgrass; [9],10
same,Blackgrass plant response rating,blackgrass; [10],7
same,Wild oats plant response rating,wild oat; [5],0
same,"Plant response rating, Wild oats",wild oat; [7],2
same,"Plant response rating, Wild oats",wild oat; [8],9
same,Wild oats plant response rating,wild oat; [9],10
same,Wild oats plant response rating,wild oat; [10],0
same,Rice plant response rating,rice; [1],0
same,"Plant response rating, Rice (0 to 10 scale, 0 is no effect, 10 is complete control)",rice; [2],0
same,"Rice plant response rating (0 to 10 scale, 0 is no effect, 10 is complete control)",rice; [3],0
same,Rice plant response rating,rice; [4],0
same,Crabgrass plant response rating,crabgrass; [5],1
same,"Plant response rating, Crabgrass",crabgrass; [11],2
same,"Plant response rating, Crabgrass",crabgrass; [6],7
same,Crabgrass plant response rating,crabgrass; [12],8
same,"Plant response rating, Crabgrass",crabgrass; [7],10
same,"Plant response rating, Crabgrass",crabgrass; [8],10
same,Crabgrass plant response rating,crabgrass; [9],10
same,Crabgrass plant response rating,crabgrass; [10],2
same,Wheat plant response rating,wheat; [5],0
same,"Plant response rating, Wheat",wheat; [7],0
same,"Plant response rating, Wheat",wheat; [8],3
same,Wheat plant response rating,wheat; [9],8
same,Wheat plant response rating,wheat; [10],0
same,Nutsedge plant response rating,purple nutsedge; [5],0
same,"Plant response rating, Nutsedge",purple nutsedge; [6],0
same,"Plant response rating, Nutsedge",purple nutsedge; [7],0
same,"Plant response rating, Nutsedge",purple nutsedge; [8],0
same,Nutsedge plant response rating,purple nutsedge; [9],0
same,Nutsedge plant response rating,purple nutsedge; [10],0
same,S. Flatsedge plant response rating,smallflower flatsedge; [1],0
same,"Plant response rating, S. Flatsedge (0 to 10 scale, 0 is no effect, 10 is complete control)",smallflower flatsedge; [2],0
same,"S. Flatsedge plant response rating (0 to 10 scale, 0 is no effect, 10 is complete control)",smallflower flatsedge; [3],0
same,S. Flatsedge plant response rating,smallflower flatsedge; [4],0
same,Corn plant response rating,corn; [5],0
same,"Plant response rating, Corn",corn; [11],0
same,"Plant response rating, Corn",corn; [6],0
same,Corn plant response rating,corn; [12],0
same,"Plant response rating, Corn",corn; [7],0
same,"Plant response rating, Corn",corn; [8],3
same,Corn plant response rating,corn; [9],9
same,Corn plant response rating,corn; [10],0
same,Morningglory plant response rating,morningglory; [5],3
same,"Plant response rating, Morningglory",morningglory; [6],7
same,"Plant response rating, Morningglory",morningglory; [7],0
same,"Plant response rating, Morningglory",morningglory; [8],0
same,Morningglory plant response rating,morningglory; [9],0
same,Morningglory plant response rating,morningglory; [10],5
